Measured values taken from article PMC8878748, “Broad-Spectrum Antiviral Activity of the Amphibian Antimicrobial Peptide Temporin L and Its Analogs” (International Journal of Molecular Sciences, 2022).
Where a SMILES comes first, the peptide text is derived from it. [ ]: non-standard residue; d: D form. The star is where a group is joined. X1 = CC(C)CCC[C@@H](C)[C@H]1CC[C@H]2[C@@H]3CC=C4C[C@@H](OC(=O)CCOCCOCCOCCOCCNC(=O)C*)CC[C@]4(C)[C@H]3CC[C@]12C; Pentadecanoyl = CCCCCCCCCCCCCCC(=O)*; Palmitoyl = CCCCCCCCCCCCCCCC(=O)*; Hyp = O=C(O)[C@@H]1C[C@@H](O)CN1; Tridecanoyl = CCCCCCCCCCCCC(=O)*; Aic = NC1(C(=O)O)Cc2ccccc2C1; dNle = CCCC[C@@H](N)C(=O)O; Nle = CCCC[C@H](N)C(=O)O

Key:
[1] = MTT cytotoxicity assay on Vero cells; type: cell-based; details: MTT; for CC50: calculated after 2 h of peptide treatment; for viability: 2 h, concentrations below 25 μM, read-out: viable cells
[2] = tested on: influenza virus (subtype H1N1); details: influenza virus (subtype, 2 h)
[3] = tested on: MeV; details: 2 h
[4] = Table 2; cited from earlier work
[5] = tested on: HCoV-OC43; details: 2 h
[6] = tested on: HCoV-229E; details: 2 h
[7] = tested on: HPIV-3; details: 2 h

CCCCCCCCCCCCCCC(=O)N[C@@H](Cc1ccccc1)C(=O)N[C@H](C(=O)N1CCC[C@H]1C(=O)N[C@@H](Cc1c[nH]c2ccccc12)C(=O)N[C@@H](Cc1ccccc1)C(=O)N[C@@H](CO)C(=O)N[C@@H](CCCCN)C(=O)N[C@@H](Cc1ccccc1)C(=O)N[C@H](CC(C)C)C(=O)N[C@@H](CCCC)C(=O)N[C@@H](CCCNC(=N)N)C(=O)N[C@H](C(=O)N[C@@H](CC(C)C)C(N)=O)[C@@H](C)CC)C(C)C [TL6.7, H-Pentadecanoic acid-Phe-Val-Pro-Trp-Phe-Ser-Lys-Phe-DLeu-Nle-Arg-Ile-Leu-NH2] (Pentadecanoyl-FVPWFSKF[dL][Nle]RIL-NH2)
CC50 [1]: > 100 µM
IC50 [2]: 3.48 µM
IC90 [2]: 8.1 µM
IC50 [3]: 37.8 µM
IC90 [3]: > 50 µM

CC[C@H](C)[C@H](NC(=O)[C@H](CCCNC(=N)N)NC(=O)[C@H]1CCCN1C(=O)[C@@H](CC(C)C)NC(=O)[C@H](Cc1ccccc1)NC(=O)[C@H](CCCCN)NC(=O)[C@H](CO)NC(=O)[C@H](Cc1ccccc1)NC(=O)[C@H](Cc1c[nH]c2ccccc12)NC(=O)[C@@H]1CCCN1C(=O)[C@@H](NC(=O)[C@@H](N)Cc1ccccc1)C(C)C)C(=O)N[C@@H](CC(C)C)C(N)=O [TL3, H-Phe-Val-Pro-Trp-Phe-Ser-Lys-Phe-DLeu-DPro-Arg-Ile-Leu-NH2] (H-FVPWFSKF[dL][dP]RIL-NH2)
CC50 [1]: > 100 µM
%Helix in DPC [4]: 8%
IC50 [2]: > 50 µM
IC90 [2]: > 50 µM
IC50 [3]: > 50 µM
IC90 [3]: > 50 µM

CC[C@H](C)[C@H](NC(=O)[C@H](CCCNC(=N)N)NC(=O)C1(NC(=O)[C@@H](CC(C)C)NC(=O)[C@H](Cc2ccccc2)NC(=O)[C@H](CCCCN)NC(=O)[C@H](CO)NC(=O)[C@H](Cc2ccccc2)NC(=O)[C@H](Cc2c[nH]c3ccccc23)NC(=O)[C@@H]2CCCN2C(=O)[C@@H](NC(=O)[C@@H](N)Cc2ccccc2)C(C)C)Cc2ccccc2C1)C(=O)N[C@@H](CC(C)C)C(N)=O [TL12, H-Phe-Val-Pro-Trp-Phe-Ser-Lys-Phe-DLeu-Aic-Arg-Ile-Leu-NH2] (H-FVPWFSKF[dL][Aic]RIL-NH2)
CC50 [1]: 8.28 µM
IC50 [5]: 620 nM
IC90 [5]: 13.2 µM
IC50 [6]: 740 nM
IC90 [6]: 20.9 µM
IC50 [7]: 33.8 µM
IC90 [7]: > 50 µM
%Helix in DPC [4]: 18%
IC50 [2]: 0.71 µM
IC90 [2]: 13.9 µM
IC50 [3]: 30.4 µM
IC90 [3]: > 50 µM

CC[C@H](C)[C@H](NC(=O)[C@H](CCCNC(=N)N)NC(=O)[C@H](CCCCN)NC(=O)[C@@H](CC(C)C)NC(=O)[C@H](Cc1ccccc1)NC(=O)[C@H](CCCCN)NC(=O)[C@H](CO)NC(=O)[C@H](Cc1ccccc1)NC(=O)[C@H](Cc1c[nH]c2ccccc12)NC(=O)[C@@H]1CCCN1C(=O)[C@@H](NC(=O)[C@@H](N)Cc1ccccc1)C(C)C)C(=O)N[C@@H](CC(C)C)C(N)=O [TL8, H-Phe-Val-Pro-Trp-Phe-Ser-Lys-Phe-DLeu-Lys-Arg-Ile-Leu-NH2] (H-FVPWFSKF[dL]KRIL-NH2)
CC50 [1]: 22.3 µM
%Helix in DPC [4]: 61%
IC50 [2]: 3.4 µM
IC90 [2]: 9.78 µM
IC50 [3]: 37.1 µM
IC90 [3]: > 50 µM

CC[C@H](C)[C@H](NC(=O)[C@H](CCCNC(=N)N)NC(=O)[C@@H](Cc1c[nH]c2ccccc12)NC(=O)[C@@H](CC(C)C)NC(=O)[C@H](Cc1ccccc1)NC(=O)[C@H](CCCCN)NC(=O)[C@H](CO)NC(=O)[C@H](Cc1ccccc1)NC(=O)[C@H](Cc1c[nH]c2ccccc12)NC(=O)[C@@H]1CCCN1C(=O)[C@@H](NC(=O)[C@@H](N)Cc1ccccc1)C(C)C)C(=O)N[C@@H](CC(C)C)C(N)=O [TL11, H-Phe-Val-Pro-Trp-Phe-Ser-Lys-Phe-DLeu-DTrp-Arg-Ile-Leu-NH2] (H-FVPWFSKF[dL][dW]RIL-NH2)
CC50 [1]: 24.1 µM
%Helix in DPC [4]: 40%
IC50 [2]: 3.05 µM
IC90 [2]: 9.77 µM
IC50 [3]: 43.2 µM
IC90 [3]: > 50 µM

CC[C@H](C)[C@H](NC(=O)[C@H](CCCNC(=N)N)NC(=O)[C@@H]1CCCN1C(=O)[C@@H](CC(C)C)NC(=O)[C@H](Cc1ccccc1)NC(=O)[C@H](CCCCN)NC(=O)[C@H](CO)NC(=O)[C@H](Cc1ccccc1)NC(=O)[C@H](Cc1c[nH]c2ccccc12)NC(=O)[C@@H]1CCCN1C(=O)[C@@H](NC(=O)[C@@H](N)Cc1ccccc1)C(C)C)C(=O)N[C@@H](CC(C)C)C(N)=O [TL2, H-Phe-Val-Pro-Trp-Phe-Ser-Lys-Phe-DLeu-Pro-Arg-Ile-Leu-NH2] (H-FVPWFSKF[dL]PRIL-NH2)
CC50 [1]: 56.5 µM
%Helix in DPC [4]: 15%
IC50 [2]: 12 µM
IC90 [2]: 21.3 µM
IC50 [3]: > 50 µM
IC90 [3]: > 50 µM

CC[C@H](C)[C@H](NC(=O)[C@H](CCCNC(=N)N)NC(=O)[C@@H](CCCCN)NC(=O)[C@@H](CC(C)C)NC(=O)[C@H](Cc1ccccc1)NC(=O)[C@H](CCCCN)NC(=O)[C@H](CO)NC(=O)[C@H](Cc1ccccc1)NC(=O)[C@H](Cc1c[nH]c2ccccc12)NC(=O)[C@@H]1CCCN1C(=O)[C@@H](NC(=O)[C@@H](N)Cc1ccccc1)C(C)C)C(=O)N[C@@H](CC(C)C)C(N)=O [TL9, H-Phe-Val-Pro-Trp-Phe-Ser-Lys-Phe-DLeu-DLys-Arg-Ile-Leu-NH2] (H-FVPWFSKF[dL][dK]RIL-NH2)
viability [1]: > 65%
CC50 [1]: 45.9 µM
%Helix in DPC [4]: 30%
IC50 [2]: 3.44 µM
IC90 [2]: 11.2 µM
IC50 [3]: 45 µM
IC90 [3]: > 50 µM

CCCC[C@@H](NC(=O)[C@@H](CC(C)C)NC(=O)[C@H](Cc1ccccc1)NC(=O)[C@H](CCCCN)NC(=O)[C@H](CO)NC(=O)[C@H](Cc1ccccc1)NC(=O)[C@H](Cc1c[nH]c2ccccc12)NC(=O)[C@@H]1CCCN1C(=O)[C@@H](NC(=O)[C@@H](N)Cc1ccccc1)C(C)C)C(=O)N[C@@H](CCCNC(=N)N)C(=O)N[C@H](C(=O)N[C@@H](CC(C)C)C(N)=O)[C@@H](C)CC [TL7, H-Phe-Val-Pro-Trp-Phe-Ser-Lys-Phe-DLeu-DNle-Arg-Ile-Leu-NH2] (H-FVPWFSKF[dL][dNle]RIL-NH2)
CC50 [1]: 32.2 µM
IC50 [7]: > 50 µM
IC90 [7]: > 50 µM
%Helix in DPC [4]: 30%
IC50 [2]: 4.45 µM
IC90 [2]: 13.5 µM
IC50 [3]: > 50 µM
IC90 [3]: > 50 µM

CC[C@H](C)[C@H](NC(=O)[C@H](CCCNC(=N)N)NC(=O)[C@H](Cc1c[nH]c2ccccc12)NC(=O)[C@@H](CC(C)C)NC(=O)[C@H](Cc1ccccc1)NC(=O)[C@H](CCCCN)NC(=O)[C@H](CO)NC(=O)[C@H](Cc1ccccc1)NC(=O)[C@H](Cc1c[nH]c2ccccc12)NC(=O)[C@@H]1CCCN1C(=O)[C@@H](NC(=O)[C@@H](N)Cc1ccccc1)C(C)C)C(=O)N[C@@H](CC(C)C)C(N)=O [TL10, H-Phe-Val-Pro-Trp-Phe-Ser-Lys-Phe-DLeu-Trp-Arg-Ile-Leu-NH2] (H-FVPWFSKF[dL]WRIL-NH2)
viability [1]: > 65%
CC50 [1]: 35.5 µM
%Helix in DPC [4]: 50%
IC50 [2]: 3.79 µM
IC90 [2]: 12.1 µM
IC50 [3]: 42.8 µM
IC90 [3]: > 50 µM

CCCCCCCCCCCCC(=O)N[C@@H](Cc1ccccc1)C(=O)N[C@H](C(=O)N1CCC[C@H]1C(=O)N[C@@H](Cc1c[nH]c2ccccc12)C(=O)N[C@@H](Cc1ccccc1)C(=O)N[C@@H](CO)C(=O)N[C@@H](CCCCN)C(=O)N[C@@H](Cc1ccccc1)C(=O)N[C@H](CC(C)C)C(=O)N[C@@H](CCCC)C(=O)N[C@@H](CCCNC(=N)N)C(=O)N[C@H](C(=O)N[C@@H](CC(C)C)C(N)=O)[C@@H](C)CC)C(C)C [TL6.6, H-Tridecanoic acid-Phe-Val-Pro-Trp-Phe-Ser-Lys-Phe-DLeu-Nle-Arg-Ile-Leu-NH2] (Tridecanoyl-FVPWFSKF[dL][Nle]RIL-NH2)
CC50 [1]: > 100 µM
IC50 [2]: 3.39 µM
IC90 [2]: 6.66 µM
IC50 [3]: 33.4 µM
IC90 [3]: > 50 µM

CC[C@H](C)[C@H](NC(=O)[C@H](CCCNC(=N)N)NC(=O)[C@@H]1C[C@@H](O)CN1C(=O)[C@@H](CC(C)C)NC(=O)[C@H](Cc1ccccc1)NC(=O)[C@H](CCCCN)NC(=O)[C@H](CO)NC(=O)[C@H](Cc1ccccc1)NC(=O)[C@H](Cc1c[nH]c2ccccc12)NC(=O)[C@@H]1CCCN1C(=O)[C@@H](NC(=O)[C@@H](N)Cc1ccccc1)C(C)C)C(=O)N[C@@H](CC(C)C)C(N)=O [TL4, H-Phe-Val-Pro-Trp-Phe-Ser-Lys-Phe-DLeu-Hyp-Arg-Ile-Leu-NH2] (H-FVPWFSKF[dL][Hyp]RIL-NH2)
CC50 [1]: 60.2 µM
IC50 [7]: > 50 µM
IC90 [7]: > 50 µM
%Helix in DPC [4]: 18%
IC50 [2]: 16.3 µM
IC90 [2]: 31.7 µM
IC50 [3]: > 50 µM
IC90 [3]: > 50 µM

CCCC[C@H](NC(=O)[C@@H](CC(C)C)NC(=O)[C@H](Cc1ccccc1)NC(=O)[C@H](CCCCN)NC(=O)[C@H](CO)NC(=O)[C@H](Cc1ccccc1)NC(=O)[C@H](Cc1c[nH]c2ccccc12)NC(=O)[C@@H]1CCCN1C(=O)[C@@H](NC(=O)[C@@H](N)Cc1ccccc1)C(C)C)C(=O)N[C@@H](CCCNC(=N)N)C(=O)N[C@H](C(=O)N[C@@H](CC(C)C)C(=O)N[C@@H](CSCC(=O)NCCOCCOCCOCCOCCC(=O)O[C@H]1CC[C@@]2(C)C(=CC[C@H]3[C@@H]4CC[C@H]([C@H](C)CCCC(C)C)[C@@]4(C)CC[C@@H]32)C1)C(N)=O)[C@@H](C)CC [TL6.1, H-Phe-Val-Pro-Trp-Phe-Ser-Lys-Phe-DLeu-Nle-Arg-Ile-Leu-Cys-[PEG4-Cholesterol]-NH2] (H-FVPWFSKF[dL][Nle]RILC(X1)-NH2)
CC50 [1]: > 100 µM
IC50 [2]: 5.55 µM
IC90 [2]: 10 µM
IC50 [3]: 39.1 µM
IC90 [3]: > 50 µM

CCCCCCCCCCCCCCCC(=O)N[C@@H](Cc1ccccc1)C(=O)N[C@H](C(=O)N1CCC[C@H]1C(=O)N[C@@H](Cc1c[nH]c2ccccc12)C(=O)N[C@@H](Cc1ccccc1)C(=O)N[C@@H](CO)C(=O)N[C@@H](CCCCN)C(=O)N[C@@H](Cc1ccccc1)C(=O)N[C@H](CC(C)C)C(=O)N[C@@H](CCCC)C(=O)N[C@@H](CCCNC(=N)N)C(=O)N[C@H](C(=O)N[C@@H](CC(C)C)C(N)=O)[C@@H](C)CC)C(C)C [TL6.8, H-Palmitic acid-Phe-Val-Pro-Trp-Phe-Ser-Lys-Phe-DLeu-Nle-Arg-Ile-Leu-NH2] (Palmitoyl-FVPWFSKF[dL][Nle]RIL-NH2)
CC50 [1]: > 100 µM
IC50 [2]: 4.77 µM
IC90 [2]: 7.11 µM
IC50 [3]: 39.4 µM
IC90 [3]: > 50 µM
